Experimental data taken from patent US20250032442A1, “METHODS AND COMPOSITIONS FOR TREATING COGNITIVE IMPAIRMENT” (AXSOME MALTA LTD., priority 2021, published 2025).

How the values were obtained:
Type in all cases: in vivo, human
[1] = tested on: cognitively impaired patients with EDS associated with OSA; experiment: SHARP clinical study: Digit Symbol Substitution Test subtest of RBANS (DSST RBANS)
Description: (§1) SHARP (Solriamfetol's Effect on Cognitive Health in Apnea Participants During a Randomized Placebo-controlled Study) was a randomized, double-blind, placebo-controlled, crossover, multicenter, trial in which 59 patients with excessive daytime sleepiness (EDS) and obstructive sleep apnea (OSA), who were experiencing cognitive impairment, were all treated with solriamfetol for 2 weeks, and with placebo for 2 weeks, with the treatment periods separated by 1 week of down-titration and washout. Patients were randomized in a 1:1 ratio either to treatment with solriamfetol followed by placebo (sequence 1), or to treatment with placebo followed by solriamfetol (sequence 2). Solriamfetol was administered orally once daily, starting at 75 mg per day for the first three days and 150 mg per day for the remainder of the 2-week treatment period. The primary outcome measure was the Digit Symbol Substitution Test subtest of the Repeatable Battery for the Assessment of Neuropsychological Status (DSST RBANS). The Digit Symbol Substitution subtest is also referred to as “Coding.” The prespecified primary endpoint was the change from baseline in cognitive function as measured by the DSST RBANS after 2 weeks of treatment (average of the 2-, 4-, 6-, and 8-hour post-dose DSST RBANS scores). […] The secondary endpoints were analyzed in a pre-specified testing sequence. […]

[2] = tested on: cognitively impaired patients with EDS associated with OSA; experiment: SHARP clinical study: British Columbia Cognitive Complaints Inventory (BC-CCI); settings: 2 weeks treatment, 150 mg per day
Description: as §1

[3] = tested on: cognitively impaired patients with EDS associated with OSA; experiment: SHARP clinical study: Epworth Sleepiness Scale (ESS); settings: 2 weeks treatment, 150 mg per day
Description: as §1

[4] = tested on: cognitively impaired patients with EDS associated with OSA; experiment: SHARP clinical study: adverse events; settings: solriamfetol treatment, 75 then 150 mg per day oral, 2 weeks
Description: as §1

NC(=O)OC[C@H](N)Cc1ccccc1 [solriamfetol, (R)-2-amino-3-phenylpropyl carbamate]
effect size, DSST RBANS vs. placebo ([1]; 2 weeks treatment, 150 mg per day): 0.36
change from baseline on the DSST RBANS ([1]; after 2 weeks oral once daily (75 mg 3 days, then 150 mg), average of 2-, 4-, 6-, 8-hour post-dose scores, placebo 4.75, p=0.009): 6.49
effect size, BC-CCI overall score vs. placebo [2]: 0.43
improvement in cognitive function, BC-CCI overall score compared to placebo ([2]; p=0.002): Statistically significant improvement
effect size, ESS vs. placebo [3]: 0.50
improvement on the ESS relative to placebo ([3]; p=0.004): approximately twice that observed with placebo
adverse event incidence: anxiety [4]: 3.4%
adverse event incidence: nausea [4]: 6.9%
